The source of these data is patent publication US8012979B2, “Compounds and their uses 707” (AstraZeneca AB, priority 2007, dated 2011).

Counter-ions that a name gives are not always drawn.

In this test the target is T1, human active recombinant p38α-6His tagged (Homo sapiens, UniProt Q16539).
T1 construct: 6His
T1 sequence (Q16539 whole entry): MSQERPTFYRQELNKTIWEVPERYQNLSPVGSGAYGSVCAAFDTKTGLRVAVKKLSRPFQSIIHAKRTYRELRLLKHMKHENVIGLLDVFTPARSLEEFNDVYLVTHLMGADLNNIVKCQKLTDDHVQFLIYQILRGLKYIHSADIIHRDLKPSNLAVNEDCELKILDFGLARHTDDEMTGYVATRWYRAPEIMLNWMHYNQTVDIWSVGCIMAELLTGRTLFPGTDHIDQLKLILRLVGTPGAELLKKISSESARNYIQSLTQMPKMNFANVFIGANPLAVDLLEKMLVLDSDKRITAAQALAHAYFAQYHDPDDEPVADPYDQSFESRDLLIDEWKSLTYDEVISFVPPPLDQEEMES
Nature of the test: p38 Alpha Enzyme Assay (AlphaScreen, biotinylated-ATF2 substrate). Type of test: biochemical. The following applies: pre-incubated 4 hours at 37° C., reaction initiated with ATP; 0.5 nM enzyme; read-out: p38 pIC50 (converted). The procedure: The ability of the compounds of formula (I) to inhibit p38 kinase may be determined using the following biological assay:
Enzyme assays were performed in polypropylene 96 well plates. The following solutions were added to each well; 10 μL of compound dilutions in assay buffer (20 mM HEPES pH 7.4, containing 20 mM magnesium acetate, 0.005% (w/v) Tween-20, 10 mM DTT) containing 1% (v/v) DMSO or assay buffer containing 1% (v/v) DMSO alone, 70 μL of assay buffer containing 36 nM substrate (biotinylated-ATF2) and 10 μL of an appropriate dilution of human active recombinant p38α-6His tagged. Depending on batch of p38, an appropriate dilution was typically a 5 nM solution to give a final enzyme concentration of 0.5 nM. At this stage, background control wells also received 50 μL of AlphaScreen quench buffer (10 mM HEPES pH 7.4 containing 100 mM EDTA, 0.2% (w/v) bovine serum albumin). The plate was covered, pre-incubated for 4 hours at 37° C. and the enzyme reaction initiated by addition of 10 μL 1 mM ATP. After incubation for a further 45 minutes at 37° C., the reaction was stopped by addition of 50 μL quench reagent and 50 μL of the quenched reaction mixture transferred to an opaque, white 96-well plate. Detection reagent, 25 μL of 10 mM HEPES pH 7.4 containing 100 mM EDTA, 0.2% (w/v) bovine serum albumin, 0.3 nM anti phosphoATF2 antibody and 25 μg/mL of ‘AlphaScreen protein A acceptor and donor beads’ (PerkinElmer Inc.), was added to all wells in a darkened room, the plate sealed and left in the dark for at least 5 hours before AlphaScreen readings were taken using a Perkin Elmer EnVision reader. Total, uninhibited activity was determined from assays performed in each assay plate. The mean control in the absence of p38 activity was subtracted from each well. Data were expressed as percent inhibition of total activity using equation 1. Percent Inhibition=100*(1−Test/Control) Eq.1 Where . . . . • Test=p38 kinase activity in the presence of compound • Control=p38 kinase activity in the absence of compound.
pIC50 is defined as the logarithm of the reciprocal of the concentration of compound required for 50% reduction in total p38 kinase activity.
In general terms: In Alpha technology, singlet oxygen from a donor bead excites a nearby acceptor bead.
For `Cc1ccc(C(=O)NC2CC2)cc1-c1ccc2c(=O)n(Cc3ccccc3)ccc2c1` [Example 1, 3-(2-Benzyl-1-oxo-1,2-dihydro-isoquinolin-6-yl)-N-cyclopropyl-4-methyl-benzamide], the IC50 is 0.794 nM. To `CCNC(=O)c1ccc(C)c(-c2ccc3c(=O)n(Cc4ccccc4)ccc3c2)c1` [Example 2, 3-(2-Benzyl-1-oxo-1,2-dihydro-isoquinolin-6-yl)-N-ethyl-4-methyl-benzamide] belongs 7.94 nM; to `Cc1ccc(C(=O)NC2CC2)cc1-c1ccc2c(=O)n(Cc3ccc(Br)cc3)ccc2c1` [Example 3, 3-[2-(4-Bromo-benzyl)-1-oxo-1,2-dihydro-isoquinolin-6-yl]-N-cyclopropyl-4-methyl-benzamide], 2.51 nM; to `Cc1ccc(C(=O)NC2CC2)cc1-c1ccc2c(=O)n(Cc3ccc(N4CCN(C)CC4)cc3)ccc2c1` [Example 4, N-Cyclopropyl-4-methyl-3{2-[4-(4-methyl-piperazin-1-yl)-benzyl]-1-oxo-1,2-dihydro-isoquinolin-6-yl}-benzamide], 1.26 nM.

Consider `Cc1ccc(C(=O)NC2CC2)cc1-c1ccc2c(=O)n(Cc3ccc(S(C)(=O)=O)cc3)ccc2c1` [Example 5, N-Cyclopropyl-3-[2-(4-methanesulfonyl-benzyl)-1-oxo-1,2-dihydro-isoquinolin-6-yl]-4-methyl-benzamide], for which the IC50 is 3.16 nM.

With `Cc1ccc(C(=O)NC2CC2)cc1-c1ccc2c(=O)n(Cc3ccc(C4=CCN(C(=O)OC(C)(C)C)CC4)cc3)ccc2c1` [Example 6, 4-{4-[6-(5-Cyclopropylcarbamoyl-2-methyl-phenyl)-1-oxo-1H-isoquinolin-2-ylmethyl]-phenyl}-3,6-dihydro-2H-pyridine-1-carboxylic acid, tert-butyl ester], the IC50 is 6.31 nM. In the case of `Cc1ccc(C(=O)NC2CC2)cc1-c1ccc2c(=O)n(Cc3ccc(C4=CCNCC4)cc3)ccc2c1` [Example 7, N-Cyclopropyl-4-methyl-3-[1-oxo-2-{4-(1,2,3,6-tetrahydro-pyridin-4-yl)-benzyl}-1,2-dihydro-isoquinolin-6-yl]-benzamide, hydrochloride] it was 0.398 nM; in that of `Cc1ccc(C(=O)NC2CC2)cc1-c1ccc2c(=O)n(Cc3ccc(C4CCNCC4)cc3)ccc2c1` [Example 8, N-Cyclopropyl-4-methyl-3-[1-oxo-2-(4-piperidin-4-yl-benzyl)-1,2-dihydro-isoquinolin-6-yl]-benzamide], 0.501 nM; in that of `CONC(=O)c1ccc(C)c(-c2ccc3c(=O)n(Cc4ccc(C5=CCNCC5)cc4)ccc3c2)c1` [Example 9, N-Methoxy-4-methyl-3-[1-oxo-2-[4-(1,2,3,6-tetrahydro-pyridin-4-yl)-benzyl]-1,2-dihydro-isoquinolin-6-yl]-benzamide], 0.2 nM. On to `Cc1ccc(C(=O)NC2CC2)cc1-c1ccc2c(=O)n(Cc3cccc(OCCCN(C)C)c3)ccc2c1` [Example 10, N-Cyclopropyl-3-{2-[3-(3-dimethylamino-propoxy)-benzyl]-1-oxo-1,2-dihydro-isoquinolin-6-yl}-4-methyl-benzamide], for which the IC50 is 2 nM. As for `Cc1ccc(C(=O)NC2CC2)cc1-c1ccc2c(=O)[nH]ccc2c1` [Example 11, N-Cyclopropyl-4-methyl-3-(1-oxo-1,2-dihydro-isoquinolin-6-yl)-benzamide], the IC50 is 25.1 nM. In the case of `C=CCn1ccc2cc(-c3cc(C(=O)NC4CC4)ccc3C)ccc2c1=O` [Example 12, 3-(2-Allyl-1-oxo-1,2-dihydro-isoquinolin-6-yl)-N-cyclopropyl-4-methyl-benzamide] it was 7.94 nM; in that of `Cc1ccc(C(=O)NC2CC2)cc1-c1ccc2c(=O)n(CCCN3CCCC3)ccc2c1` [Example 13, N-Cyclopropyl-4-methyl-3-[1-oxo-2-(3-pyrrolidin-1-yl-propyl)-1,2-dihydro-isoquinolin-6-yl]-benzamide], 316 nM.

`Cc1ccc(C(=O)NC2CC2)cc1-c1ccc2c(=O)n(Cc3ccc(CN(C)C)cc3)ccc2c1` [Example 14, N-Cyclopropyl-3-[2-(4-dimethylaminomethyl-benzyl)-1-oxo-1,2-dihydro-isoquinolin-6-yl]-4-methyl-benzamide]: the IC50 was 2.51 nM.

For `Cc1ccc(C(=O)NC2CC2)cc1-c1ccc2c(=O)n(Cc3cccc(CN(C)C)c3)ccc2c1` [Example 15, N-Cyclopropyl-3-[2-(3-dimethylaminomethyl-benzyl)-1-oxo-1,2-dihydro-isoquinolin-6-yl]-4-methyl-benzamide], the IC50 is 3.16 nM.

Turning to `Cc1ccc(C(=O)NC2CC2)cc1-c1ccc2c(=O)n(Cc3ccccc3CN(C)C)ccc2c1` [Example 16, N-Cyclopropyl-3-[2-(2-dimethylaminomethyl-benzyl)-1-oxo-1,2-dihydro-isoquinolin-6-yl]-4-methyl-benzamide], the IC50 was 50.1 nM. Take `COc1ccc(Cn2ccc3cc(-c4cc(C(=O)NC5CC5)ccc4C)ccc3c2=O)cc1` [Example 17, N-Cyclopropyl-3-[2-(4-methoxy-benzyl)-1-oxo-1,2-dihydro-isoquinolin-6-yl]-4-methyl-benzamide]: the IC50 is 1 nM. To `Cc1ccc(C(=O)NC2CC2)cc1-c1ccc2c(=O)n(Cc3ccc(C(=O)N(C)CCN(C)C)cc3)ccc2c1` [Example 18, N-Cyclopropyl-3-(2-(4-((2-(dimethylamino)ethyl)(methyl)carbamoyl)benzyl)-1-oxo-1,2-dihydroisoquinolin-6-yl)-4-methylbenzamide] belongs 2 nM; to `Cc1ccc(C(=O)NC2CC2)cc1-c1ccc2c(=O)n(Cc3ccc(C(=O)NCCN(C)C)cc3)ccc2c1` [Example 19, N-Cyclopropyl-3-(2-(4-(2-(dimethylamino)ethylcarbamoyl)benzyl)-1-oxo-1,2-dihydroisoquinolin-6-yl)-4-methylbenzamide], 1 nM. To `Cc1ccc(C(=O)NC2CC2)cc1-c1ccc2c(=O)n(Cc3ccc(C(=O)N4CCN(C)CC4)cc3)ccc2c1` [Example 20, N-Cyclopropyl-4-methyl-3-(2-(4-(4-methylpiperazine-1-carbonyl)benzyl)-1-oxo-1,2-dihydroisoquinolin-6-yl)benzamide] belongs 1.26 nM; to `Cc1ccc(C(=O)NC2CC2)cc1-c1ccc2c(=O)n(Cc3ccc(C(=O)N(C)CCCN(C)C)cc3)ccc2c1` [Example 21, N-Cyclopropyl-3-(2-(4-((3-(dimethylamino)propyl)(methyl)carbamoyl)benzyl)-1-oxo-1,2-dihydroisoquinolin-6-yl)-4-methylbenzamide], 3.16 nM. On to `Cc1ccc(C(=O)NC2CC2)cc1-c1ccc2c(=O)n(Cc3ccc(C(=O)NCCN4CCCC4)cc3)ccc2c1` [Example 22, N-Cyclopropyl-4-methyl-3-(1-oxo-2-(4-(2-(pyrrolidin-1-yl)ethylcarbamoyl)benzyl)-1,2-dihydroisoquinolin-6-yl)benzamide], for which the IC50 is 0.794 nM.

For the molecule `CNCCN(C)C(=O)c1ccc(Cn2ccc3cc(-c4cc(C(=O)NC5CC5)ccc4C)ccc3c2=O)cc1` [Example 23, N-Cyclopropyl-4-methyl-3-(2-(4-(methyl(2-(methylamino)ethyl)carbamoyl)benzyl)-1-oxo-1,2-dihydroisoquinolin-6-yl)benzamide], the IC50 is 2 nM. In the case of `Cc1ccc(C(=O)NC2CC2)cc1-c1ccc2c(=O)n(Cc3ccc(C(=O)NCCCN4CCCC4)cc3)ccc2c1` [Example 24, N-Cyclopropyl-4-methyl-3-(1-oxo-2-(4-(3-(pyrrolidin-1-yl)propylcarbamoyl)benzyl)-1,2-dihydroisoquinolin-6-yl)benzamide], the IC50 is 0.631 nM. On to `Cc1ccc(C(=O)NC2CC2)cc1-c1ccc2c(=O)n(Cc3ccc(CN4CCCC4)cc3)ccc2c1` [Example 25, N-Cyclopropyl-4-methyl-3-(1-oxo-2-(4-(pyrrolidin-1-ylmethyl)benzyl)-1,2-dihydroisoquinolin-6-yl)benzamide], for which the IC50 was 3.16 nM. To `Cc1ccc(C(=O)NC2CC2)cc1-c1ccc2c(=O)n(Cc3ccc(CN4CCN(C)CC4)cc3)ccc2c1` [Example 26, N-Cyclopropyl-4-methyl-3-(2-(4-((4-methylpiperazin-1-yl)methyl)benzyl)-1-oxo-1,2-dihydroisoquinolin-6-yl)benzamide] belongs 3.16 nM; to `Cc1ccc(C(=O)NC2CC2)cc1-c1ccc2c(=O)n(Cc3ccc(CN(C)C(C)(C)C)cc3)ccc2c1` [Example 27, 3-(2-(4-((Tert-butyl(methyl)amino)methyl)benzyl)-1-oxo-1,2-dihydroisoquinolin-6-yl)-N-cyclopropyl-4-methylbenzamide], 1 nM.
